Drawing on publication PMC6934184, “Selective DNA-PKcs inhibition extends the therapeutic index of localized radiotherapy and chemotherapy” (The Journal of Clinical Investigation, 2019), this text covers inhibition for 1 molecule.

In this assay the target is T1, PIK3C2B (PI3K-C2 beta) (Homo sapiens, UniProt O00750).
T1 construct: purchased Thermo Fisher Scientific (Life Technologies) SelectScreen
Put plainly: SelectScreen Adapta. The class given is biochemical. The settings on record: ATP 10 µM. As to the method: The in vitro kinase selectivity of NU5455 was determined using the SelectScreen Broad Assay Panel (Thermo Fisher Scientific) involving activity and binding assays (Supplemental Table 1). […] Class IA PI3Ks were measured using the p85α subunit.
Kinase [ATP] % Assay Kinase [ATP] % Assay Kinase [ATP] % Assay Kinase [ATP] % Assay
DNA-PK Km app 98.3 Z LATS2 n/a 4.7 L KIT D820E n/a 1.3 L GSK3B (GSK3 beta) Km app -2.5 Z
PIK3C3 (hVPS34) Km app 85.9 A PRKCZ (PKC zeta) Km app 4.7 Z GRK1 n/a 1.3 L BMPR2 n/a -2.5 L
PIK3C2B (PI3K-C2 beta) 10 28.9 A FGFR1 Km app 4.7 Z BRSK2 n/a 1.2 L CDC42 BPB (MRCKB) Km app -2.5 Z
SNF1LK2 Km app 26.6 Z MINK1 Km app 4.6 Z NUAK1 (ARK5) Km app 1.2 A AMPK (A2/B2/G2) n/a -2.6 L
HCK Km app 18.0 Z CSF1R (FMS) Km app 4.3 Z CDK9/cyclin K n/a 1.0 L PRKG1 Km app -2.7 Z
NEK2 Km app 17.8 Z CSNK1G3 (CK1 gamma 3) Km app 4.2 Z NUAK2 n/a 1.0 L KIT T670E n/a -2.8 L
ALK Km app 17.3 Z STK32C (YANK3) n/a 4.2 L CDK2/cyclin O n/a 0.9 L ERBB4 (HER4) Km app -2.8 Z
FGFR3 K650M n/a 16.5 L STK22D (TSSK1) Km app 4.2 Z CAMKK2 (CaMKK beta) n/a 0.9 L PLK4 n/a -2.8 L
SIK3 n/a 16.1 L TAOK3 (JIK) n/a 4.2 L FGFR3 Km app 0.9 Z GRK7 Km app -3.0 Z
LYN A Km app 15.2 Z RPS6KA4 (MSK2) Km app 4.2 Z ULK2 n/a 0.9 L MAPKAPK2 Km app -3.1 Z
BMPR1B (ALK6) n/a 14.5 L PTK2B (FAK2) Km app 4.2 Z KIT D816V n/a 0.9 L FGFR4 Km app -3.1 Z
INSRR (IRR) Km app 14.1 Z CLK2 Km app 4.1 Z CAMK1 (CaMK1) 10 0.8 A CASK n/a -3.1 L
PLK2 Km app 14.1 Z STK24 (MST3) Km app 4.1 Z PTK6 (Brk) Km app 0.7 Z GRK5 Km app -3.2 Z
PRKACA (PKA) Km app 14.0 Z CAMK1D (CaMKI delta) Km app 4.1 Z CAMK2B (CaMKII beta) Km app 0.7 Z EGFR (ErbB1) T790M Km app -3.3 Z
EIF2AK2 (PKR) n/a 13.3 L INSR Km app 4.1 Z ACVR1 (ALK2) n/a 0.7 L PAK4 Km app -3.3 Z
PRKX Km app 12.5 Z IRAK1 Km app 4.0 A ABL1 H396P n/a 0.6 L DAPK3 (ZIPK) Km app -3.4 Z
FGR Km app 12.1 Z SRC N1 Km app 3.9 Z MERTK (cMER) A708S n/a 0.6 L RET M918T n/a -3.5 L
CLK1 Km app 11.7 Z SRPK2 Km app 3.9 Z MAPKAPK5 (PRAK) Km app 0.6 Z PRKCQ (PKC theta) Km app -3.7 Z
MARK3 Km app 11.4 Z RPS6KA6 (RSK4) Km app 3.8 Z AKT1 (PKB alpha) Km app 0.5 Z CAMKK1 (CAMKKA) n/a -3.8 L
PDGFRB (PDGFR beta) Km app 11.0 Z GRK6 Km app 3.7 Z NTRK3 (TRKC) Km app 0.4 Z FLT3 D835Y Km app -3.9 Z
PRKCN (PKD3) Km app 10.7 Z PKN1 (PRK1) Km app 3.6 Z ZAP70 Km app 0.3 Z ROCK2 Km app -4.1 Z
STK16 (PKL12) n/a 10.5 L MAP3K8 (COT) 100 3.5 Z CSNK1A1 (CK1 alpha 1) Km app 0.3 Z CHUK (IKK alpha) Km app -4.2 A
FES (FPS) Km app 10.4 Z FLT4 (VEGFR3) Km app 3.5 Z MYLK (MLCK) n/a 0.2 L AXL Km app -4.2 Z
ABL1 Km app 10.4 Z GRK4 Km app 3.5 Z MKNK2 (MNK2) n/a 0.2 L PIM2 Km app -4.3 Z
MUSK Km app 10.3 Z FRK (PTK5) Km app 3.4 Z AMPK (A1/B1/G3) n/a 0.2 L PAK1 Km app -4.4 Z
MAPK1 (ERK2) Km app 10.1 Z FYN A n/a 3.3 L MAP3K2 (MEKK2) n/a 0.1 L BMPR1A (ALK3) n/a -4.4 L
BRAF 100 9.9 Z CDK1/cyclin A2 n/a 3.3 L CDK8/cyclin C n/a 0.1 L STK4 (MST1) Km app -4.4 Z
IGF1R Km app 9.7 Z KIT V559D T670I n/a 3.1 L MARK2 Km app 0.1 Z PRKCH (PKC eta) Km app -4.6 Z
MAPK14 (p38 alpha) Km app 9.7 Z SPHK2 10 3.1 A ICK n/a 0.0 L SGKL (SGK3) Km app -4.6 Z
LCK Km app 9.6 Z FGFR3 G697C n/a 3.1 L FGFR2 Km app 0.0 Z PI4KB (PI4K beta) Km app -4.7 A
MAPK11 (p38 beta) Km app 9.5 Z RIPK2 n/a 3.1 L AKT2 (PKB beta) Km app 0.0 Z PRKCE (PKC epsilon) Km app -4.9 Z
SRC Km app 9.5 Z PAK6 Km app 3.0 Z EPHB2 Km app -0.1 Z PHKG1 Km app -5.0 Z
CHEK1 (CHK1) Km app 9.3 Z LYN B Km app 3.0 Z TGFBR2 n/a -0.1 L PDGFRA D842V Km app -5.0 Z
CAMK2D (CaMKII delta) Km app 9.3 Z DAPK2 n/a 2.9 L TEK (Tie2) Km app -0.1 Z PRKG2 (PKG2) Km app -5.1 Z
PLK1 Km app 9.2 Z EPHA4 Km app 2.9 Z AURKA (Aurora A) Km app -0.1 Z TYRO3 (RSE) Km app -5.1 Z
RET Y791F Km app 9.2 Z PIK3CG (p110 gamma) Km app 2.9 A KIT D816H n/a -0.2 L TAOK2 (TAO1) Km app -5.1 Z
FLT3 Km app 9.1 Z HIPK1 (Myak) Km app 2.8 Z KIT N822K n/a -0.2 L EPHB4 Km app -5.3 Z
MAPK10 (JNK3) 100 9.0 Z ADRBK2 (GRK3) Km app 2.8 Z PRKACG (PRKAC gamma) n/a -0.2 L AURKC (Aurora C) Km app -5.4 Z
CSNK2A2 (CK2 alpha 2) Km app 8.7 Z STK17B (DRAK2) n/a 2.7 L TEK (TIE2) Y1108F n/a -0.3 L JAK1 Km app -5.7 Z […]

As usually defined, the inhibition is the relative decrease from the control value, in per cent. Lower therefore signals a response near the control.

T1 sequence (O00750 whole entry): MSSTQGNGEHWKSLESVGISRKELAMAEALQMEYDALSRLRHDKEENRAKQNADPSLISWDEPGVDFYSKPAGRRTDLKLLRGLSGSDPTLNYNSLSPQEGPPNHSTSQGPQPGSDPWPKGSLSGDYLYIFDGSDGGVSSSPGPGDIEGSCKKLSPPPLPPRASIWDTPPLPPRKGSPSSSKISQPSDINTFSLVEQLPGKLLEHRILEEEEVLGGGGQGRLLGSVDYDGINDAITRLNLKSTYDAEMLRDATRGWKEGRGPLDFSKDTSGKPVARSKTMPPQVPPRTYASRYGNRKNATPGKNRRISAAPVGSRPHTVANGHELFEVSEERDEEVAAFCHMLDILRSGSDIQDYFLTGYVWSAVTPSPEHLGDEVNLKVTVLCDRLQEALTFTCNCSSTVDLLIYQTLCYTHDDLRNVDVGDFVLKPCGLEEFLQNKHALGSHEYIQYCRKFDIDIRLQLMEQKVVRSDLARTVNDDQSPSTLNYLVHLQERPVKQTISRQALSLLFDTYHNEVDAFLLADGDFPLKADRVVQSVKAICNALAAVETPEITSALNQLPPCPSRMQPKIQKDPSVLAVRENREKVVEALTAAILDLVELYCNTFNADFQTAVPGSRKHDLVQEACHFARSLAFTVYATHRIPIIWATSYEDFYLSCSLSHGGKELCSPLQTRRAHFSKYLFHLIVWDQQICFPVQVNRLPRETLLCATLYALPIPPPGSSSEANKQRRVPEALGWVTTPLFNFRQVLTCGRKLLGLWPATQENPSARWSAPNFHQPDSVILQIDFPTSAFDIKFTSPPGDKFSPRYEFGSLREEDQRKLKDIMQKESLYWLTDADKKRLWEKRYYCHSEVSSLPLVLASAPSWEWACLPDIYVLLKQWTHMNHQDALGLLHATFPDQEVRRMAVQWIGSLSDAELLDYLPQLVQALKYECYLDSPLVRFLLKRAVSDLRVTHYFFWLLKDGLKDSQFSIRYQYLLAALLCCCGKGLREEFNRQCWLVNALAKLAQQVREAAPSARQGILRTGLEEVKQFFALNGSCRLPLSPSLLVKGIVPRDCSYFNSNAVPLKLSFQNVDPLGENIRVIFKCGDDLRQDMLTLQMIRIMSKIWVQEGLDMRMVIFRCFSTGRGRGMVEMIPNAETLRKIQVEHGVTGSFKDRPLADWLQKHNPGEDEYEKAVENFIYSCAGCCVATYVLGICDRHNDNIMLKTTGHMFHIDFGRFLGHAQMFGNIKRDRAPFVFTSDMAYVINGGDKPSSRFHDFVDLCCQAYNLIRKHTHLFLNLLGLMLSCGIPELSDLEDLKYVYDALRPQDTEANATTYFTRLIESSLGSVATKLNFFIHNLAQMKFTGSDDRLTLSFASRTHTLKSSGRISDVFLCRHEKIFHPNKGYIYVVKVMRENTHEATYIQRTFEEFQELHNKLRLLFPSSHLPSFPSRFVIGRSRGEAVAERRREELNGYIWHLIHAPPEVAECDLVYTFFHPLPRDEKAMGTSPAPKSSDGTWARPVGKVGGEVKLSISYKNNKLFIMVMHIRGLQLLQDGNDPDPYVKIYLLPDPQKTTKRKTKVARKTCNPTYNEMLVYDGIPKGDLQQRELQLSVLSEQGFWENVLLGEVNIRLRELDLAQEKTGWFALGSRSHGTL

The molecule `CN(C(=O)CN1CCOCC1)c1ccc2sc3c(-c4cccc5c(=O)cc(N6CC7CCC(C6)O7)oc45)cccc3c2c1` [NU5455] had an inhibition at 1 µM of 28.9%.
